Assay results taken from patent publication US4778797A, “Organo-silicon compounds, process for the manufacture of same, and anti-tumor agent comprising the compound” (Sanwa Kagaku Kenkyusho Co., Ltd., priority 1984, dated 1988).
Converted amounts (≈) assume the structure as drawn. Read-outs that look alike come from different tables or passages of the source.

Legend:
Colon-38 carcinoma = test: Anti-tumor action to Colon-38 carcinoma; assay type: in vivo, BDF1 mice; settings: oral, tumor weight at 28th day
Experimental: 0.02 ml of 10(W/V)% cell suspension prepared from a solid cancer cell (Colon-38 carcinoma) were transplanted under skin of BDF1 mice (20-21 g, age of about 5 weeks), and each of testing compounds was orally dosed to the mice at 1st, 5th and 9th day after the transplantation. A major and minor axes of the cancerous tumor were measured at 11th, 14th, 21st, 25th and 28th day after the transplantation to calcurate volume of the tumor in accordance with the following.
At 28th day from the transplantation, the mice were killed and each of the cancerous tumors was extracted to measure its weight and to determine an inhibitation ratio in comparison with a non-treated control group.

Acute toxicity = assay type: in vivo, CrJ/CDI female mice; settings: mouse, in vivo; oral gavage, suspended in 0.1% P-1570, female mice, 21 days observation
Experimental: Each of testing compounds suspended in 0.1% P-1570 was orally and forcedly dosed through a gastric probe to CrJ/CDI female mice (21 to 22 g, age of about 5 weeks). An identification number was given to each mouse, and a weighing and observation on general behavior were carried out just before the dosage and each day after the same. Each of died mice was subjected without delay to an autopsy to check the same, more particularly in detail on enterona. All of living mice were killed at 21st day from the dosage to carry out an autopsy for checking the same, more particularly on entrails.
An LD50 was calculated in accordance with the Leed and Munch's method.
A similar test was carried out on each controls of 1-[2-[(2-trimethylsilylethyl)thio]ethylcarbamoyl]-5-fluorouracil and 1-hexylcarbamoyl-5-fluorouracil (HCFU) which is one of exemplary anti-tumor agents.

KB cells = test: Suppression of KB cell proliferation in vitro; assay type: cell-based; settings: Homo sapiens, 72 h, 3 days exposure, Trypan Blue dye-exclusion, read-out: KB IC50 (50% inhibition density to tumor cell proliferation)
Experimental: In a cultivation device (5% CO2, 37° C.), KB cells (1×10^4 cells) were cultivated for 24 hours in a culture tube with 1 ml of Eagle culture medium added 10% ox serum, the used culture medium was thrown away to change with a fresh culture medium (0.9 ml), and then 0.1 ml of a similar culture fluid containing each testing compound prepared by the process as described in the Examples was added to cultivate the same for further 3 days. Thereafter, living cells were dyed with Tripan Blue and measured same through a dye-exclusion method.
A control was treated in a manner similar to the above, except that a culture fluid containing no compound of the invention was added.
50% inhibition density (IC50) to the tumor cell proliferation was decided through the tests between the testing group and the control group to obtain results as shown in following Table 1.

Lewis lung carcinoma = test: Anti-tumor action to Lewis lung carcinoma (primary tumor weight and metastasis); assay type: in vivo, BDF1 mice; settings: Mus musculus, po, 504 h
Text: Lewis lung carcinoma (1×10^5 cells) was transplanted under skin of right ear of BDF1 mice (age of about 5 weeks), and each of testing compounds was orally dosed 10 times from 1st to 10th day after the transplantation. At 21st day after the transplantation, the mice were killed to measure a weight of the primarly tumor and to extract a lung. The lung was fixed in a conventional manner to count a number of metastasis on cancerous cells with use of a stereomicroscope having a low magnification. An anti-tumor action of each compound was expressed with an inhibition in weight of the primarly tumor and an inhibition of the metastasis.

L-1210 leukemia = test: Anti-tumor action to L-1210 leukemia; assay type: in vivo, BDF1 female mice; settings: Mus musculus, L1210, oral; for ILS at 250 mg/kg/day: 250 mg/kg/day × 3 (1st, 5th, 9th day); for ILS at 500 mg/kg/day: 500 mg/kg/day × 3 (1st, 5th, 9th day)
Experimental: L-1210 leukemia cell (1×10^5 cells) was transplanted in a abdominal cavity of BDF1 female mice (20-21 g, age of about 5 weeks), and each of testing compounds was orally dosed in 250 mg/kg or 500 mg/kg at 1st, 5th and 9th day after the transplantation to check days of life of the mice. [formula]

B-16 melanoma = test: Anti-tumor action to B-16 melanoma; assay type: in vivo, BDF1 female mice; settings: oral, tumor weight at 21st day; for inhibition in vivo at 250 mg/kg/day: 250 mg/kg/day × 3
Text: B-16 melanoma (1×10^5 cells) was transplanted under skin of BDF1 female mice (age of about 5 weeks), and each of testing compounds was orally dosed at 1st, 5th and 9th day after the transplantation. At 21st day after the transplantation, the mice were killed to measure a weight of the cancerous tumor and to finally determine an inhibition ratio.

MM-46 adenocarcinoma = test: Anti-tumor action to MM-46 adenocarcinoma; assay type: in vivo, C3H/He female mice; settings: oral, 250 mg/kg/day × 3 (1st, 5th, 9th day); days to death, testing vs control group
Text: MM-46 adenocarcinoma (1×10^6 cells) was transplanted under skin of C3H/He female mice (age of about 5 weeks), and each of testing compounds was orally dosed at 1st, 5th and 9th day after the transplantation to check days of life on the mice.
T: days to death on testing group, and
C: days to death on control group.

[1] = Mus musculus, B16, 504 h, 300 mg/kg/day × 3, read-out: B-16 melanoma Inhibition ratio
[2] = 13.5 mg/kg/day × 10 + Amputation, 21st day, read-out: Inhibition Ratio weight LLC
[3] = 13.5 mg/kg/day × 10 + Amputation, lung, 21st day, printed in parentheses, read-out: Inhibition Ratio metastasis
[4] = 27 mg/kg/day × 10 + Amputation, 21st day, read-out: Inhibition Ratio weight LLC
[5] = 27 mg/kg/day × 10 + Amputation, lung, 21st day, printed in parentheses, read-out: Inhibition Ratio metastasis
[6] = 27 mg/kg/day × 10, 21st day, read-out: Inhibition Ratio weight LLC
[7] = 27 mg/kg/day × 10, lung, 21st day, read-out: Inhibition Ratio metastasis
[8] = 54 mg/kg/day × 10, 21st day, read-out: Inhibition Ratio weight LLC
[9] = 54 mg/kg/day × 10, lung, 21st day, read-out: Inhibition Ratio metastasis
[10] = Mus musculus, B16, 504 h, read-out: B-16 melanoma Inhibition ratio

| SMILES | LD50 at 504 h (Acute toxicity) [mg/kg] | IC50 (KB cells) [µg/mL] | ILS at 250 mg/kg/day (L-1210 leukemia; read-out: L-1210 ILS) [%] | ILS at 250 mg/kg/day (L-1210 leukemia; read-out: L-1210 Judgement) [%] | ILS at 500 mg/kg/day (L-1210 leukemia; read-out: L-1210 ILS) [%] | ILS at 500 mg/kg/day (L-1210 leukemia; read-out: L-1210 Judgement) [%] | inhibition in vivo at 300 mg/kg/day (B-16 melanoma; [1]) [%] | inhibition in vivo at 13.5 mg/kg/day (Lewis lung carcinoma; [2]) [%] | inhibition in vivo at 13.5 mg/kg/day (Lewis lung carcinoma; [3]) [%] | inhibition in vivo at 27 mg/kg/day (Lewis lung carcinoma; [4]) [%] | inhibition in vivo at 27 mg/kg/day (Lewis lung carcinoma; [5]) [%] | inhibition in vivo at 27 mg/kg/day (Lewis lung carcinoma; [6]) [%] | inhibition in vivo at 27 mg/kg/day (Lewis lung carcinoma; [7]) [%] | inhibition in vivo at 54 mg/kg/day (Lewis lung carcinoma; [8]) [%] | inhibition in vivo at 54 mg/kg/day (Lewis lung carcinoma; [9]) [%] | inhibition in vivo at 250 mg/kg/day (B-16 melanoma; [10]) [%] | other results |
| --- | --- | --- | --- | --- | --- | --- | --- | --- | --- | --- | --- | --- | --- | --- | --- | --- | --- |
| CC[Si](CC)(CC)CCSCCNC(=O)n1cc(F)c(=O)[nH]c1=O [Example 2, 5-Fluoro-3,4-dihydro-2,4-dioxo-N-[2-[[(2-triethylsilyl)ethyl]thio]ethyl]-1(2H)-pyrimidinecarboxamide] | 1540 | 13 (≈ 34.6 µM) | 19 | < 25 | 96 | 50 to 100 | 47.2 | – | – | – | – | – | – | – | – | – | inhibition in vivo at 300 mg/kg/day (Colon-38 carcinoma; Mus musculus, 672 h, 300 mg/kg/day × 3, read-out: colon-38 Inhibition ratio): 71.9%; inhibition in vivo at 14 mg/kg/day (Lewis lung carcinoma; 14 mg/kg/day × 10, 21st day, read-out: Inhibition Ratio weight LLC): 0%; inhibition in vivo at 14 mg/kg/day (Lewis lung carcinoma; 14 mg/kg/day × 10, lung, 21st day, read-out: Inhibition Ratio metastasis): 45.2% |
| CC(C)[Si](C)(C)CCSCCNC(=O)n1cc(F)c(=O)[nH]c1=O [Example 5, 5-Fluoro-3,4-dihydro-N-[2-[[2-(isopropyldimethylsilyl)ethyl]thio]ethyl]-2,4-dioxo-1(2H)-pyrimidinecarboxamide] | – | 4 (≈ 11.1 µM) | 51 | 25 to 50 | 106 | ≥ 100 | – | 34.7 | 15.4 | 35.8 | > 39.5 | 7.1 | 78.4 | 34.9 | 83 | – | MM-46 adenocarcinoma T/C × 100 (MM-46 adenocarcinoma): 162%; colon-38 Inhibition ratio (Colon-38 carcinoma; 289 mg/kg/day × 3): 89.8%; inhibition in vivo at 13.5 mg/kg/day (Lewis lung carcinoma; 13.5 mg/kg/day × 10, 21st day, read-out: Inhibition Ratio weight LLC): 0%; inhibition in vivo at 13.5 mg/kg/day (Lewis lung carcinoma; 13.5 mg/kg/day × 10, lung, 21st day, read-out: Inhibition Ratio metastasis): 19.3%; B-16 melanoma Inhibition ratio (B-16 melanoma; 300 mg/kg/day × 3): 79.7% |
| CCCC[Si](C)(C)CCSCCNC(=O)n1cc(F)c(=O)[nH]c1=O [Example 6, N-[2-[[2-(Butyldimethylsilyl)ethyl]thio]ethyl]-5-fluoro-3,4-dihydro-2,4-dioxo-1(2H)-pyrimidinecarboxamide] | – | 12 (≈ 32 µM) | 35 | 25 to 50 | 73 | 50 to 100 | 53.5 | 37.3 | 18.3 | 30.9 | 23.1 | 39.6 | 92.6 | 38 | 95.1 | – | colon-38 Inhibition ratio (Colon-38 carcinoma; 300 mg/kg/day × 3): 81.2% |
| C[Si](C)(C)CCSCCCNC(=O)n1cc(F)c(=O)[nH]c1=O [Example 8, 5-Fluoro-3,4-dihydro-2,4-dioxo-N-[3-[[2-(trimethylsilyl)ethyl]thio]propyl]-1-(2H)-pyrimidinecarboxamide] | 1360 | 7 (≈ 20.1 µM) | 27 | 25 to 50 | 70 | 50 to 100 | – | – | – | – | – | – | – | – | – | 4.3 | inhibition in vivo at 278 mg/kg/day (Colon-38 carcinoma; Mus musculus, 672 h, 278 mg/kg/day × 3, read-out: colon-38 Inhibition ratio): 78%; inhibition in vivo at 13 mg/kg/day (Lewis lung carcinoma; 13 mg/kg/day × 10 + Amputation, 21st day, read-out: Inhibition Ratio weight LLC): 33.3%; inhibition in vivo at 13 mg/kg/day (Lewis lung carcinoma; 13 mg/kg/day × 10 + Amputation, lung, 21st day, printed in parentheses, read-out: Inhibition Ratio metastasis): 18.4%; inhibition in vivo at 13 mg/kg/day (Lewis lung carcinoma; 13 mg/kg/day × 10, 21st day, read-out: Inhibition Ratio weight LLC): 0%; inhibition in vivo at 13 mg/kg/day (Lewis lung carcinoma; 13 mg/kg/day × 10, lung, 21st day, read-out: Inhibition Ratio metastasis): 53%; inhibition in vivo at 26 mg/kg/day (Lewis lung carcinoma; 26 mg/kg/day × 10 + Amputation, 21st day, read-out: Inhibition Ratio weight LLC): 64.9%; inhibition in vivo at 26 mg/kg/day (Lewis lung carcinoma; 26 mg/kg/day × 10 + Amputation, lung, 21st day, printed in parentheses, read-out: Inhibition Ratio metastasis): 33.6%; inhibition in vivo at 26 mg/kg/day (Lewis lung carcinoma; 26 mg/kg/day × 10, 21st day, read-out: Inhibition Ratio weight LLC): 26.2%; inhibition in vivo at 26 mg/kg/day (Lewis lung carcinoma; 26 mg/kg/day × 10, lung, 21st day, read-out: Inhibition Ratio metastasis): 92.5% |
| C[Si](C)(C)CCCSCCCNC(=O)n1cc(F)c(=O)[nH]c1=O [Example 10, 5-Fluoro-3,4-dihydro-2,4-dioxo-N-[3-[[3-(trimethylsilyl)propyl]thio]propyl]-1(2H)-pyrimidinecarboxamide] | 2170 | 10 (≈ 27.7 µM) | 49 | 25 to 50 | 111 | ≥ 100 | – | – | – | – | – | – | – | – | – | 15.2 | inhibition in vivo at 289 mg/kg/day (Colon-38 carcinoma; Mus musculus, 672 h, 289 mg/kg/day × 3, read-out: colon-38 Inhibition ratio): 89.5%; inhibition in vivo at 125 mg/kg/day (B-16 melanoma; Mus musculus, B16, 504 h, 125 mg/kg/day × 3, read-out: B-16 melanoma Inhibition ratio): 38.1% |
